Patent US9540350B2, “1-substituted, 4-(substituted phenoxymethyl)-1,2,3-triazole compounds with antifungal properties and methods for preparation thereof” (FDC LIMITED, priority 2013, dated 2017)
Values after ≈ are worked out from the molar mass of the structure shown. Where two headings read alike, the source gives them in different places.

Tests used:
C. krusei ATCC 6258 = experiment: Antifungal susceptibility, broth dilution MIC (CLSI M27-A2); type: cell-based, Candida krusei; conditions: Pichia kudriavzevii, read-out: Activity against organisms (MIC50) Ck01
Protocol: (§1) The compounds of Formula 1 were tested for antifungal activity against Candida albicans, C. glabrata, C. krusei, C. tropicalis, Cryptococcus neoformans, Aspergillus fumigatus, A. niger and Fusarium proliferatum. In vitro evaluation of antifungal activity was performed by determining the minimum inhibitory concentration (MIC) following standard methods (CLSI: Reference method for broth dilution antifungal susceptibility testing of yeasts; Approved standard, second edition M27-A2, 2002; CLSI: Reference method for broth dilution antifungal susceptibility testing of filamentous fungi; Approved standard M38-A, 2002). Anti-fungal susceptibility testing of these anti-fungal compounds was done by broth dilution method using RPMI 1640 medium with MOPS buffer. Known anti-fungal agent fluconazole was used as positive control. End points were determined after 48 hours visually and by using spectrophotometer wherever necessary. Different dilutions were tried and various sets of experiments performed. The activity parameters are enumerated in Table 4.

A. niger ATCC 16404 = experiment: Antifungal susceptibility, broth dilution MIC (CLSI M38-A); type: cell-based; conditions: Aspergillus niger, read-out: Activity against organisms (MIC50) An01
Protocol: as §1

[1] = system: F. proliferatum ATCC 10052; experiment: as above; type: cell-based; conditions: Fusarium proliferatum, read-out: Activity against organisms (MIC50) Fp01
Protocol: as §1

A. fumigatus ATCC 46645 = experiment: as above; type: cell-based; conditions: Aspergillus fumigatus, read-out: Activity against organisms (MIC50) Afm01
Protocol: as §1

C. albicans ATCC 24433 = experiment: Antifungal susceptibility, broth dilution MIC (CLSI M27-A2); type: cell-based; conditions: Candida albicans, read-out: Activity against organisms (MIC50) Ca01
Protocol: as §1

C. glabrata ATCC 90030 = experiment: as above; type: cell-based, Candida glabrata; conditions: Nakaseomyces glabratus, read-out: Activity against organisms (MIC50) Cg01
Protocol: as §1

C. tropicalis ATCC 750 = experiment: as above; type: cell-based, Candida tropicalis; conditions: Candida tropicalis, read-out: Activity against organisms (MIC50) Ct01
Protocol: as §1

C. neoformans ATCC 34664 = experiment: as above; type: cell-based, Cryptococcus neoformans; conditions: Cryptococcus neoformans, read-out: Activity against organisms (MIC50) Cn01
Protocol: as §1

[2] = ATCC6258, C. krusei ATCC 6258, broth dilution, RPMI 1640 with MOPS, 48 hours
[3] = ATCC16404, A. niger ATCC 16404, broth dilution, RPMI 1640 with MOPS, 48 hours
[4] = ATCC10052, F. proliferatum ATCC 10052, broth dilution, RPMI 1640 with MOPS, 48 hours
[5] = ATCC46645, A. fumigatus ATCC 46645, broth dilution, RPMI 1640 with MOPS, 48 hours
[6] = ATCC24433, C. albicans ATCC 24433, broth dilution, RPMI 1640 with MOPS, 48 hours
[7] = ATCC90030, C. glabrata ATCC 90030, broth dilution, RPMI 1640 with MOPS, 48 hours
[8] = ATCC750, C. tropicalis ATCC 750, broth dilution, RPMI 1640 with MOPS, 48 hours
[9] = ATCC34664, C. neoformans ATCC 34664, broth dilution, RPMI 1640 with MOPS, 48 hours

SMILES	MIC50 (C. krusei ATCC 6258; [2])	MIC50 (A. niger ATCC 16404; [3])	MIC50 [1, 4]	MIC50 (A. fumigatus ATCC 46645; [5])	MIC50 (C. albicans ATCC 24433; [6])	MIC50 (C. glabrata ATCC 90030; [7])	MIC50 (C. tropicalis ATCC 750; [8])	MIC50 (C. neoformans ATCC 34664; [9])	MIC50 (C. krusei ATCC 6258; ATCC6258, 48 h)	MIC50 (A. niger ATCC 16404; ATCC16404, 48 h)	MIC50 ([1]; ATCC10052, 48 h)	MIC50 (A. fumigatus ATCC 46645; ATCC46645, 48 h)	MIC50 (C. albicans ATCC 24433; ATCC24433, 48 h)	MIC50 (C. glabrata ATCC 90030; ATCC90030, 48 h)	MIC50 (C. tropicalis ATCC 750; ATCC750, 48 h)	MIC50 (C. neoformans ATCC 34664; ATCC34664, 48 h)
O=C(/C=C/c1ccccc1)c1ccc(OCc2cn(CC(O)(Cn3cncn3)c3ccc(F)cc3F)nn2)cc1 (stereo not shown) [Compound 1A-1, (E)-1-(4-((1-(2-(2,4-Difluorophenyl)-2-hydroxy-3-(1H-1,2,4-triazol-1-yl)propyl)-1H-1,2,3-triazol-4-yl)methoxy)phenyl)-3-phenylprop-2-en-1-one]	4 µg/mL (≈ 7.37 µM)	> 8 µg/mL	> 8 µg/mL	> 8 µg/mL	0.12 µg/mL (≈ 0.221 µM)	0.12 µg/mL (≈ 0.221 µM)	1 µg/mL (≈ 1.84 µM)	0.5 µg/mL (≈ 0.922 µM)								
COc1ccc(/C=C/C(=O)c2ccc(OCc3cn(CC(O)(Cn4cncn4)c4ccc(F)cc4F)nn3)cc2)cc1 (stereo not shown) [Compound 1A-2, (E)-1-(4-((1-(2-(2,4-Difluorophenyl)-2-hydroxy-3-(1H-1,2,4-triazol-1-yl)propyl)-1H-1,2,3-triazol-4-yl)methoxy)phenyl)-3-(4-methoxyphenyl)prop-2-en-1-one]	8 µg/mL (≈ 14 µM)	> 4 µg/mL	> 4 µg/mL	> 4 µg/mL	0.25 µg/mL (≈ 0.437 µM)	1 µg/mL (≈ 1.75 µM)	2 µg/mL (≈ 3.49 µM)	1 µg/mL (≈ 1.75 µM)								
Cc1ccc(/C=C/C(=O)c2ccc(OCc3cn(CC(O)(Cn4cncn4)c4ccc(F)cc4F)nn3)cc2)cc1 (stereo not shown) [Compound 1A-3, (E)-1-(4-((1-(2-(2,4-Difluorophenyl)-2-hydroxy-3-(1H-1,2,4-triazol-1-yl)propyl)-1H-1,2,3-triazol-4-yl)methoxy)phenyl)-3-(4-methylphenyl)prop-2-en-1-one]	4 µg/mL (≈ 7.19 µM)	> 4 µg/mL	> 4 µg/mL	> 4 µg/mL	0.25 µg/mL (≈ 0.449 µM)	0.25 µg/mL (≈ 0.449 µM)	2 µg/mL (≈ 3.59 µM)	0.5 µg/mL (≈ 0.898 µM)								
O=C(/C=C/c1cccs1)c1ccc(OCc2cn(CC(O)(Cn3cncn3)c3ccc(F)cc3F)nn2)cc1 (stereo not shown) [Compound 1A-4, (E)-1-(4-((1-(2-(2,4-Difluorophenyl)-2-hydroxy-3-(1H-1,2,4-triazol-1-yl)propyl)-1H-1,2,3-triazol-4-yl)methoxy)phenyl)-3-(2-thienyl)prop-2-en-1-one]	4 µg/mL (≈ 7.29 µM)	> 8 µg/mL	> 8 µg/mL	> 8 µg/mL	0.12 µg/mL (≈ 0.219 µM)	0.5 µg/mL (≈ 0.911 µM)	1 µg/mL (≈ 1.82 µM)	0.5 µg/mL (≈ 0.911 µM)								
COc1ccc(C(=O)/C=C/c2ccc(OCc3cn(CC(O)(Cn4cncn4)c4ccc(F)cc4F)nn3)cc2)cc1 (stereo not shown) [Compound 1B-1]	4 µg/mL (≈ 6.99 µM)	> 4 µg/mL	> 4 µg/mL	> 4 µg/mL	0.12 µg/mL (≈ 0.21 µM)	0.5 µg/mL (≈ 0.873 µM)	1 µg/mL (≈ 1.75 µM)	1 µg/mL (≈ 1.75 µM)								
O=C(/C=C/c1ccc(OCc2cn(CC(O)(Cn3cncn3)c3ccc(F)cc3F)nn2)cc1)c1ccc(F)cc1 (stereo not shown) [Compound 1B-2, (E)-3-(4-((1-(2-(2,4-Difluorophenyl)-2-hydroxy-3-(1H-1,2,4-triazol-1-yl)propyl)-1H-1,2,3-triazol-4-yl)methoxy)phenyl)-1-(4-fluorophenyl)prop-2-en-1-one]	4 µg/mL (≈ 7.14 µM)	> 4 µg/mL	> 4 µg/mL	> 4 µg/mL	0.06 µg/mL (≈ 0.107 µM)	0.5 µg/mL (≈ 0.892 µM)	2 µg/mL (≈ 3.57 µM)	0.25 µg/mL (≈ 0.446 µM)								
CC(=O)/C=C/c1ccc(OCc2cn(CC(O)(Cn3cncn3)c3ccc(F)cc3F)nn2)cc1 (stereo not shown) [Compound 1B-3, (E)-4-(4-((1-(2-(2,4-Difluorophenyl)-2-hydroxy-3-(1H-1,2,4-triazol-1-yl)propyl)-1H-1,2,3-triazol-4-yl)methoxy)phenyl)but-3-en-2-one]									16 µg/mL (≈ 33.3 µM)	> 64 µg/mL	> 64 µg/mL	> 64 µg/mL	0.12 µg/mL (≈ 0.25 µM)	0.5 µg/mL (≈ 1.04 µM)	1 µg/mL (≈ 2.08 µM)	2 µg/mL (≈ 4.16 µM)
O=C(/C=C/c1ccc(OCc2cn(CC(O)(Cn3cncn3)c3ccc(F)cc3F)nn2)cc1)C1CC1 (stereo not shown) [Compound 1B-4, (E)-1-(Cyclopropyl)-3-(4-((1-(2-(2,4-difluorophenyl)-2-hydroxy-3-(1H-1,2,4-triazol-1-yl)propyl)-1H-1,2,3-triazol-4-yl)methoxy)phenyl)prop-2-en-1-one]	> 32 µg/mL	> 32 µg/mL	> 32 µg/mL	> 32 µg/mL	0.12 µg/mL (≈ 0.237 µM)	0.5 µg/mL (≈ 0.987 µM)	2 µg/mL (≈ 3.95 µM)	1 µg/mL (≈ 1.97 µM)								
CCCN1CCN(c2ccc(C(=O)/C=C/c3ccc(OCc4cn(CC(O)(Cn5cncn5)c5ccc(F)cc5F)nn4)cc3)cc2)CC1 (stereo not shown) [Compound 1B-5, (E)-3-(4-((1-(2-(2,4-Difluorophenyl)-2-hydroxy-3-(1H-1,2,4-triazol-1-yl)propyl)-1H-1,2,3-triazol-4-yl)methoxy)phenyl)-1-(4-(4-propylpiperazin-1-yl)phenyl)prop-2-en-1-one]	> 4 µg/mL	> 4 µg/mL	> 4 µg/mL	> 4 µg/mL	0.06 µg/mL (≈ 0.0897 µM)	0.5 µg/mL (≈ 0.748 µM)	0.5 µg/mL (≈ 0.748 µM)	1 µg/mL (≈ 1.5 µM)								
CCCCN1CCN(c2ccc(C(=O)/C=C/c3ccc(OCc4cn(CC(O)(Cn5cncn5)c5ccc(F)cc5F)nn4)cc3)cc2)CC1 (stereo not shown) [Compound 1B-6, (E)-1-(4-(4-n-Butylpiperazin-1-yl)phenyl)-3-(4-((1-(2-(2,4-difluorophehyl)-2-hydroxy-3-(1H-1,2,4-triazol-1-yl)propyl)-1H-1,2,3-triazol-4-yl)methoxy)phenyl)prop-2-en-1-one]	> 4 µg/mL	> 4 µg/mL	> 4 µg/mL	> 4 µg/mL	0.12 µg/mL (≈ 0.176 µM)	0.5 µg/mL (≈ 0.732 µM)	0.5 µg/mL (≈ 0.732 µM)	1 µg/mL (≈ 1.46 µM)								
CCCCCN1CCN(c2ccc(C(=O)/C=C/c3ccc(OCc4cn(CC(O)(Cn5cncn5)c5ccc(F)cc5F)nn4)cc3)cc2)CC1 (stereo not shown) [Compound 1B-7, (E)-3-(4-((1-(2-(2,4-Difluorophenyl)-2-hydroxy-3-(1H-1,2,4-triazol-1-yl)propyl)-1H-1,2,3-triazol-4-yl)methoxy)phenyl)-1-(4-(4-n-pentylpiperazin-1-yl)phenyl)-prop-2-en-1-one]	8 µg/mL (≈ 11.5 µM)	> 2 µg/mL	> 2 µg/mL	> 2 µg/mL	0.5 µg/mL (≈ 0.718 µM)	0.5 µg/mL (≈ 0.718 µM)	2 µg/mL (≈ 2.87 µM)	2 µg/mL (≈ 2.87 µM)								
